From patent US20260266848A1, “COMPOSITIONS AND METHODS FOR DIAGNOSING AND TREATING DYSTONIA” (Duke University, priority 2023, published 2026)

How the values were obtained:
DYT-TOR1A MEF EVs = assay: Quantitative LC-MS/MS proteomics of EVs from drug-treated DYT-TOR1A MEF cultures (ritonavir, salubrinal); type: cell-based, mouse; design: key to RTV Corrective Direction / RTV Corrective Direction, Grwd1 / RTV Corrective Direction, Srrm2 / RTV Corrective Direction, Rbm17 / RTV Corrective Direction, Dcaf8 / RTV Corrective Direction, Edil3 / RTV Corrective Direction, Timp3 / RTV Corrective Direction, Heatr3 / RTV Corrective Direction, Brd4 / RTV Corrective Direction, P3h4 / RTV Corrective Direction, Pacsin3 / RTV Corrective Direction, Naa50 / RTV Corrective Direction, Lpar6 / RTV Corrective Direction, Ndrg1 / RTV Corrective Direction, Kntc1 / RTV Corrective Direction, Cdk11b / RTV Corrective Direction, Sumo1 / RTV Corrective Direction, Lsm4 / RTV Corrective Direction, Hmga2 / RTV Corrective Direction, Cstf1 / RTV Corrective Direction, Tes / RTV Corrective Direction, Sbno1 / RTV Corrective Direction, Unc119b / RTV Corrective Direction, Cfdp1 / RTV Corrective Direction, Sec61b: YES = protein abundance effect opposite to DYT/WT; settings: EV protein abundance; for RTV Corrective Direction: DYT + RTV (ritonavir) vs DYT, direction compared with DYT/WT; for DYT + RTV/DYT Cohen's d: ritonavir (RTV)-treated DYT vs DYT
WT MEF EVs = assay: Quantitative LC-MS/MS proteomics of EVs from ISRIB-treated WT MEF cultures; type: cell-based, mouse; design: key to ISRIB and DYT Parallel Direction / ISRIB and DYT Parallel Direction, Ctdsp1 / ISRIB and DYT Parallel Direction, Pcdh19 / ISRIB and DYT Parallel Direction, Tspan7 / ISRIB and DYT Parallel Direction, Myo1e / ISRIB and DYT Parallel Direction, Plpp3 / ISRIB and DYT Parallel Direction, Sh3bp4 / ISRIB and DYT Parallel Direction, Dnajc7 / ISRIB and DYT Parallel Direction, Drg1 / ISRIB and DYT Parallel Direction, Maea: YES = protein abundance effect similar to DYT/WT; settings: EV protein abundance; for WT + ISRIB/WT Cohen's d: ISRIB-treated WT vs WT; for ISRIB and DYT Parallel Direction: WT + ISRIB vs WT, direction compared with DYT/WT

## Myo18a
DYT-TOR1A MEF EVs
  RTV Corrective Direction: YES
  DYT + RTV/DYT Cohen's d: 4.91
WT MEF EVs
  WT + ISRIB/WT Cohen's d: 2.27

## Nes
DYT-TOR1A MEF EVs
  DYT + RTV/DYT Cohen's d: 0.37
WT MEF EVs
  WT + ISRIB/WT Cohen's d: 2.29
  ISRIB and DYT Parallel Direction: YES

## Col10a1
DYT-TOR1A MEF EVs
  RTV Corrective Direction: YES
  DYT + RTV/DYT Cohen's d: −3.41
WT MEF EVs
  WT + ISRIB/WT Cohen's d: 0.36
  ISRIB and DYT Parallel Direction: YES

## Ltbp1
DYT-TOR1A MEF EVs
  RTV Corrective Direction: YES
  DYT + RTV/DYT Cohen's d: −3.08
WT MEF EVs
  WT + ISRIB/WT Cohen's d: 2.17
  ISRIB and DYT Parallel Direction: YES

## Tardbp
DYT-TOR1A MEF EVs
  RTV Corrective Direction: YES
  DYT + RTV/DYT Cohen's d: 0.80
WT MEF EVs
  WT + ISRIB/WT Cohen's d: 0.28
  ISRIB and DYT Parallel Direction: YES

## Akr1b1
DYT-TOR1A MEF EVs
  RTV Corrective Direction: YES
  DYT + RTV/DYT Cohen's d: 5.32
WT MEF EVs
  WT + ISRIB/WT Cohen's d: −0.22
  ISRIB and DYT Parallel Direction: YES

## Cul3
DYT-TOR1A MEF EVs
  RTV Corrective Direction: YES
  DYT + RTV/DYT Cohen's d: 2.36
WT MEF EVs
  WT + ISRIB/WT Cohen's d: −0.66
  ISRIB and DYT Parallel Direction: YES

## Ptprs
DYT-TOR1A MEF EVs
  RTV Corrective Direction: YES
  DYT + RTV/DYT Cohen's d: −5.40
WT MEF EVs
  WT + ISRIB/WT Cohen's d: 0.13
  ISRIB and DYT Parallel Direction: YES

## Otub1
DYT-TOR1A MEF EVs
  RTV Corrective Direction: YES
  DYT + RTV/DYT Cohen's d: 5.84
WT MEF EVs
  WT + ISRIB/WT Cohen's d: −2.26
  ISRIB and DYT Parallel Direction: YES

## Sptan1
DYT-TOR1A MEF EVs
  RTV Corrective Direction: YES
  DYT + RTV/DYT Cohen's d: 3.22
WT MEF EVs
  WT + ISRIB/WT Cohen's d: −0.40
  ISRIB and DYT Parallel Direction: YES

## lgf1r
DYT-TOR1A MEF EVs
  RTV Corrective Direction: YES
  DYT + RTV/DYT Cohen's d: 0.63
WT MEF EVs
  WT + ISRIB/WT Cohen's d: 0.75

## Ltbp2
DYT-TOR1A MEF EVs
  RTV Corrective Direction: YES
  DYT + RTV/DYT Cohen's d: −5.72
WT MEF EVs
  WT + ISRIB/WT Cohen's d: 0.70
  ISRIB and DYT Parallel Direction: YES

## Ddx39b
DYT-TOR1A MEF EVs
  RTV Corrective Direction: YES
  DYT + RTV/DYT Cohen's d: 13.79
WT MEF EVs
  WT + ISRIB/WT Cohen's d: −1.12
  ISRIB and DYT Parallel Direction: YES

## Hdgf
DYT-TOR1A MEF EVs
  RTV Corrective Direction: YES
  DYT + RTV/DYT Cohen's d: −0.15
WT MEF EVs
  WT + ISRIB/WT Cohen's d: 1.97
  ISRIB and DYT Parallel Direction: YES

## Dhx9
DYT-TOR1A MEF EVs
  RTV Corrective Direction: YES
  DYT + RTV/DYT Cohen's d: 6.23
WT MEF EVs
  WT + ISRIB/WT Cohen's d: −1.27
  ISRIB and DYT Parallel Direction: YES

## Cope
DYT-TOR1A MEF EVs
  RTV Corrective Direction: YES
  DYT + RTV/DYT Cohen's d: 7.24
WT MEF EVs
  WT + ISRIB/WT Cohen's d: −1.30
  ISRIB and DYT Parallel Direction: YES

## Rab1b
DYT-TOR1A MEF EVs
  RTV Corrective Direction: YES
  DYT + RTV/DYT Cohen's d: 1.15
WT MEF EVs
  WT + ISRIB/WT Cohen's d: −2.54
  ISRIB and DYT Parallel Direction: YES

## Nrbp1
DYT-TOR1A MEF EVs
  RTV Corrective Direction: YES
  DYT + RTV/DYT Cohen's d: 6.35
WT MEF EVs
  WT + ISRIB/WT Cohen's d: 0.18

## Pgp
DYT-TOR1A MEF EVs
  RTV Corrective Direction: YES
  DYT + RTV/DYT Cohen's d: 2.28
WT MEF EVs
  WT + ISRIB/WT Cohen's d: −0.86
  ISRIB and DYT Parallel Direction: YES

## Hmcn1
DYT-TOR1A MEF EVs
  RTV Corrective Direction: YES
  DYT + RTV/DYT Cohen's d: −3.58
WT MEF EVs
  WT + ISRIB/WT Cohen's d: −2.25

## Idh2
DYT-TOR1A MEF EVs
  RTV Corrective Direction: YES
  DYT + RTV/DYT Cohen's d: 23.61
WT MEF EVs
  WT + ISRIB/WT Cohen's d: −2.01
  ISRIB and DYT Parallel Direction: YES
